Results: US5879942A, “Processing enzyme for polypeptide” (Kabushiki Kaisha Hayashibara Seibutsu Kagaku Kenkyujo, priority 1996, dated 1999)

Biological target: T1, the present enzyme (Homo sapiens, UniProt P29466)
T1 construct: Using the anti-human ICE-p20 antibody and the antihuman ICE-p10 antibody; endogenous in cells
T1 sequence (P29466 120-297 limits assumed): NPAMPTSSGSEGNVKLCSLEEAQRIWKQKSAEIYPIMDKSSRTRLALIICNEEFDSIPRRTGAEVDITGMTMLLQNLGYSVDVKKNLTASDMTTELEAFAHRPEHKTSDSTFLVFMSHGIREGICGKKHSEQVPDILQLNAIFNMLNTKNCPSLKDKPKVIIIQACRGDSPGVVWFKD
T1 sequence (P29466 317-404 limits assumed): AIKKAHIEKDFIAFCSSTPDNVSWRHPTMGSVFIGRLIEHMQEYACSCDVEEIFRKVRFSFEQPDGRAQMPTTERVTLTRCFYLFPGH
Test: Activity of inhibitory agent on enzyme: conversion of precursor, Western Blotting
Format: biochemical
Settings: for band corresponding to the active form on Western Blotting: enzyme of Example 1 (THP-1 cells), 37° C. for 3 hours; for Inhibitory agent: enzyme obtainable from a human hematopoietic cell, general property; for enzyme activity inhibited: enzyme of Example 7 (HL-60 cells), methods in Examples 2-5
Protocol: A substrate solution was prepared by dissolving the precursor of the polypeptide in Example 4-1 in 100 mM Hepes buffer (pH 7.4), containing 10 v/v % glycerol, 0.1 w/v % CHAPS and 2 mM dithiothreitol, to give a concentration of 500 nM, and mixed with 350 units/ml of the enzyme solution in Example 1, followed by the incubation at 37° C. At 0 min, 10 min, 30 min, one hour, 3 hours, 6 hours and 18 hours after initiating the incubation, a portion of the reaction mixture was sampled at each sampling time and admixed with iodoacetamide to give a final concentration of 200 μg/ml to suspend the reaction. The Western Blotting method using the monoclonal antibody, as disclosed in Japanese Patent Application No.231,598/96 applied by the same applicant of the present invention, was applied to the reaction mixture to study the change on passage of time during the conversion of the precursor into the active form.
In the conversion method for precursor in Example 4-2, the present enzyme in Example 1 was admixed with 5 μM Ac-YVAD-CHO or 650 μM iodoacetamide and reacted at 37° C. for 3 hours.

SMILES | band corresponding to the active form on Western Blotting (5 μM Ac-YVAD-CHO) | Inhibitory agent | enzyme activity inhibited | band corresponding to the active form on Western Blotting (650 μM iodoacetamide)
CC(=O)N[C@@H](Cc1ccc(O)cc1)C(=O)N[C@H](C(=O)N[C@@H](C)C(=O)N[C@H](C=O)CC(=O)O)C(C)C [Ac-YVAD-CHO, acetyl-L-tyrosyl-L-varyl-L-alanyl-L-aspart-1-al] | no band corresponding to the active form was detected | inhibited | inhibited | 
NC(=O)CI [iodoacetamide] |  | inhibited | inhibited | no band corresponding to the active form was detected
